Experimental findings from patent US12617831B2 (UNIVERSITE D'ANGERS, priority 2019, dated 2026) are described below.

The subject of assay [1] is Murine Raw 264.7 cells. The experiment in a line: Raw264.7 cell-mediated osteoclast formation in vitro (Example 2). The format is cell-based. Conditions: 10 ng/ml soluble murine RANKL, 110 h, TRAcP staining. An excerpt: TRAcP positive cells, with more than three nuclei, were identified as osteoclasts.
The test system of a further assay is Murine MC3T3-E1 cells. The experiment in a line: Collagen maturity assay in MC3T3-E1 cultures (Example 2). It is filed as cell-based. Conditions: compared with [D-Ala^2]GIP1-30NH2 and [Gly^2]GLP-2. The procedure:
At confluence, the propagation medium was replaced by the differentiation medium containing αMEM supplemented with 5% FBS, 5% bovine calf serum, 100 U/mL penicillin, 100 μg/mL streptomycin, 50 μg/ml ascorbic acid and various concentrations of analogues. This day was considered as day 1. The differentiation medium was replenished every two days. […] Cultures were rinsed at least six times with milliQ water, fixed in absolute ethanol, scrapped off the culture dish and transferred onto BaF2 windows where they were air-dried. Integrity of the collagen extracellular matrix was verified by comparing the obtained Fourier transform infrared spectrum with those of commercial collagen. Spectral analysis was performed using a Bruker Vertex 70 spectrometer (Bruker optics, Ettlingen, Germany) interfaced with a Bruker Hyperion 3000 infrared microscope equipped with a standard single element Mercury Cadmium Telluride (MCT) detector. Infrared spectra were recorded at a resolution of 4 cm^−1, with an average of 32 scans in transmission mode. Background spectral images were collected under identical conditions from the same BaF2 windows at the beginning and end of each experiment to ensure instrument stability. At least 20 spectra were acquired for each condition and analyzed with a lab-made routine script in Matlab R2016b (The Mathworks, Natick, MA).

In assay [2] the test system is Murine Raw 264.7 cells. It is filed as cell-based. Conditions: for IC50 computed from curve fitting of osteoclastogenesis vs. peptide concentration: Raw 264.7, RANKL 10 ng/ml, 110 h, * values determined from previous experiments.
The test system of assay [3] is human GIPr and the human GLP-2r. Briefly: Cyclic AMP assay (FRET, H74 probe), HEK-293 co-transfected with human GIPr and human GLP-2r. The format is cell-based. Conditions: 10^-9 M. The procedure: (§1) Human HEK-293 cells were plated at a density of 2×10^5 cells/cm^2 in 4 well microslides (ibidi GmbH, Martinsried, Germany). […] Jalink (Netherland Cancer Institute, Amsterdam, Netherland). […] The image acquisition was performed with a 63 X, 1.4 N.A. oil immersion objective and a Hybrid® detector (Leica) and images were collected after 30 minutes. Donor excitation was made with a 458 nm Ar laser, donor emission was collected between 460-505 nm and acceptor emission between 520-600 nm by setting the SP8 spectrometer accordingly. FRET was expressed as the ratio between donor and acceptor signals.

The target in the next assay is T1, human GLP-2r (Homo sapiens, UniProt O95838).
T1 construct: host or cells: HEK-293
T1 sequence (O95838 1-553): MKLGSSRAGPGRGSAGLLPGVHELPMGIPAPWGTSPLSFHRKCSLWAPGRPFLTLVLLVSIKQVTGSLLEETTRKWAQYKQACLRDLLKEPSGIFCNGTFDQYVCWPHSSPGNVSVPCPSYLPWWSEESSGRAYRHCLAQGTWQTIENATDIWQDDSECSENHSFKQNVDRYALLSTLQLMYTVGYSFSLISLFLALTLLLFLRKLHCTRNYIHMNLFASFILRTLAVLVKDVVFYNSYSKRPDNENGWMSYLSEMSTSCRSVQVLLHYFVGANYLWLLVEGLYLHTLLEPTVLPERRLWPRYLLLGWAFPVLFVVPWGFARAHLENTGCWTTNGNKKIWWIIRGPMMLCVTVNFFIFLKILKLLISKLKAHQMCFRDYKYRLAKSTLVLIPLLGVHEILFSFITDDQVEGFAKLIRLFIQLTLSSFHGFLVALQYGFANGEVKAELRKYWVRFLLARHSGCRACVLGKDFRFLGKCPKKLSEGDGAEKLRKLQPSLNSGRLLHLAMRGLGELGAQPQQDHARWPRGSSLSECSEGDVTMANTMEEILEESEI
Briefly: Cyclic AMP assay (FRET, H74 probe), HEK-293 transfected with human GLP-2r. The format is cell-based. Conditions: HEK 293 transfected only with human GLP-2r, 10^-9 M, 30 min (FIG. 17). The procedure: as §1

For assay [4], the system named is ovariectomy-induced bone loss in mice. Briefly: Trabecular bone microarchitecture, fifth lumbar vertebra, ovariectomized mice. It is filed as in vivo. Conditions: OVX mice, L5, 25 nmoles/kg/day, vs vehicle. The procedure:
At 16 weeks of age, ALZET osmotic pumps (model number 2006, Durect Corp., Cupertino, CA) filled with the below saline or peptide were implanted subcutaneously between the two scapula under general anesthesia in 32 mice. Successful filling of pumps was verified by weighting the pump before and after filling. At 20 weeks of age, ALZET osmotic pumps were replaced by similar pumps to ensure delivery for four new weeks. […] This dose and regimen of zoledronic acid was equivalent to the 5 mg infusion approved for the treatment of post-menopausal osteoporosis in humans. Analyses of vertebral bodies of the fifth lumbar vertebra (L5) were performed with a Nanotom nanotomograph (Phoenix, GE, USA) operated at 85 kV, 220 μA, 1000 ms integration time. The isotropic pixel size was fixed at 4 μm, the rotation step at 0.25° and exposure was done with a 0.1 mm copper filter. Each 3D reconstruction image dataset was binarized using global thresholding. Trabecular volume of interest was computerized on coronal sections of the L5 vertebral body. Trabecular VOI was spread over the entire vertebral body excluding the first and last 80 μm from the anterior and posterior cortical wall. All microCT/NanoCT parameters were determined according to guidelines and nomenclature proposed by the American Society for Bone and Mineral Research (Bouxsein et al., 2010).

Read-outs that look alike come from different tables or passages of the source.

As for `CC[C@H](C)[C@H](NC(=O)[C@H](CO)NC(=O)[C@H](CCSC)NC(=O)[C@H](CC(=O)O)NC(=O)[C@H](CO)NC(=O)CNC(=O)[C@H](Cc1ccccc1)NC(=O)[C@H](CO)NC(=O)CNC(=O)[C@H](CCC(=O)O)NC(=O)CNC(=O)[C@@H](N)Cc1c[nH]cn1)C(=O)N[C@@H](C)C(=O)N[C@@H](CC(C)C)C(=O)N[C@@H](CC(=O)O)C(=O)N[C@@H](CCCCN)C(=O)N[C@@H](CC(C)C)C(=O)N[C@@H](C)C(=O)N[C@@H](C)C(=O)N[C@@H](CCCNC(=N)N)C(=O)N[C@@H](CC(=O)O)C(=O)N[C@@H](Cc1ccccc1)C(=O)N[C@H](C(=O)N[C@@H](CC(N)=O)C(=O)N[C@@H](Cc1c[nH]c2ccccc12)C(=O)N[C@@H](CC(C)C)C(=O)N[C@@H](CC(C)C)C(=O)N[C@@H](CCC(N)=O)C(=O)N[C@H](C(=O)N[C@@H](CCCCN)C(=O)N[C@H](C(=O)N[C@H](C(=O)N[C@@H](CC(=O)O)C(=O)O)[C@@H](C)O)[C@@H](C)CC)[C@@H](C)O)C(C)C` [GL-0001], in the assay with Murine Raw 264.7 cells [1], it took 0.0182 ± 0.0056 nM to reach half-maximal inhibition (IC50). For the same compound, the “potency versus native peptides, based on osteoclast formation in vitro and collagen maturity in vitro” value with Murine MC3T3-E1 cells is given as “better potency than each native peptide”. Further, in the assay with Murine Raw 264.7 cells [2], the IC50 computed from curve fitting of osteoclastogenesis vs. peptide concentration turned out to be 14.2 pM. The concentration for a half-maximal effect (EC50) with Murine Raw 264.7 cells [2] (Raw 264.7, * data obtained in previous experiments, read-out: EC50 of inhibitory effect on osteoclastogenesis) stood at 0.0142 nM. The “intracellular levels of cAMP” value in assay [3] (HEK 293 co-transfected with human GIPr and human GLP-2r, 30 min (FIG. 18)) is listed as “increased intracellular levels of cAMP”; at human GLP-2r, “increased intracellular levels of cAMP”. For the same compound, the “magnitude of cAMP rise versus native peptides” value in assay [3] (co-transfected HEK 293 cells) is “greater with GL-0001 than with each native peptide”.

`CC[C@H](C)[C@H](NC(=O)[C@H](CO)NC(=O)[C@H](Cc1ccccc1)NC(=O)[C@H](CC(=O)O)NC(=O)[C@H](CO)NC(=O)CNC(=O)[C@H](Cc1ccccc1)NC(=O)[C@H](CO)NC(=O)CNC(=O)[C@H](CCC(=O)O)NC(=O)CNC(=O)[C@@H](N)Cc1c[nH]cn1)C(=O)N[C@@H](C)C(=O)N[C@@H](CC(C)C)C(=O)N[C@@H](CC(=O)O)C(=O)N[C@@H](CCCCN)C(=O)N[C@@H](CC(C)C)C(=O)N[C@@H](C)C(=O)N[C@@H](C)C(=O)N[C@@H](CCCNC(=N)N)C(=O)N[C@@H](CC(=O)O)C(=O)N[C@@H](Cc1ccccc1)C(=O)N[C@H](C(=O)N[C@@H](CC(N)=O)C(=O)N[C@@H](Cc1c[nH]c2ccccc12)C(=O)N[C@@H](CC(C)C)C(=O)N[C@@H](CC(C)C)C(=O)N[C@@H](CCC(N)=O)C(=O)N[C@H](C(=O)N[C@@H](CCCCN)C(N)=O)[C@@H](C)O)C(C)C` [GL-0007]: in the assay with Murine MC3T3-E1 cells, the “potency versus native peptides, based on osteoclast formation in vitro and collagen maturity in vitro” value is “better potency than each native peptide”. In the assay with Murine Raw 264.7 cells [2], the EC50 was determined as 0.0062 nM and the IC50 computed from curve fitting of osteoclastogenesis vs. peptide concentration came out at 6.2 pM. The “reduction in trabecular spacing” value in assay [4] stood at 17%.
